Measurements: the Deep4Chem optical property database
Several values for one entry are separate records, joined by “and”; a condition that tells them apart may be missing. Equal values may be shown once. Values belong to the compound of their own block, whether it stands above or below them.

Assay: solvent given as SMILES

SMILES: O=P1(c2ccccc2)C2=C(c3ccccc31)[Si](c1ccccc1)(c1ccccc1)c1cc(N(c3ccccc3)c3ccccc3)ccc12 (centres undefined)
absorption maximum (in CC#N): 456 nm
absorption maximum (in CO): 466 nm
absorption maximum (in Cc1ccccc1): 459 nm

absorption maximum (in C1CCCCC1): 291.46 nm and 286 nm
SMILES: c1ccc2ccccc2c1

absorption maximum (in C1CCOC1): 426 nm
SMILES: CCCCCOc1cc2oc(=O)c3c4ccc(C#N)cc4c4ccc5cccc6c(c1)c2c3c4c56

absorption maximum (in CS(C)=O): 299 nm
SMILES: O=C1CC(=O)Nc2cc(Br)ccc2N1

SMILES: CCN(CC)c1ccc([N+]2=Cc3ccc4c5c(ccc4c3O[B-]2(c2ccccc2)c2ccccc2)C=[N+](c2ccc(N(CC)CC)cc2)[B-](c2ccccc2)(c2ccccc2)O5)cc1
absorption maximum (in Cc1ccccc1): 558 nm
absorption maximum (in ClCCl): 552 nm

absorption maximum (in C1CCCCC1): 451.06 nm
absorption maximum (in C1COCCO1): 453.93 nm
absorption maximum (in CC#N): 454.96 nm
absorption maximum (in CC(C)O): 452.08 nm
absorption maximum (in CCCCCC): 450.05 nm
absorption maximum (in ClC(Cl)Cl): 457.04 nm
absorption maximum (in c1ccccc1): 454.96 nm
SMILES: CC1(C)Cc2c(c3ccccc3c3nc4c(nc23)c2c(c3ccccc34)OC(C)(C)C2)O1

absorption maximum (in ClC(Cl)Cl): 563 nm
SMILES: CCCCCCCCN1C(=O)c2ccc3c4c(-c5ccc6c(c5)c5ccccc5n6-c5ccccc5)cc5c6c(cc(-c7ccc8c(c7)c7ccccc7n8-c7ccccc7)c(c7ccc(c2c37)C1=O)c64)C(=O)N(CCCCCCCC)C5=O

absorption maximum (in CCO): 443 nm
SMILES: CNc1cc2nc3cc(Br)c(Br)cc3nc2cc1NC

absorption maximum (in C1CCCCC1): 387 nm
SMILES: C(#Cc1ccccc1)C1=Cc2ccc3ccccc3c2NB1c1ccccc1

absorption maximum (in CS(C)=O): 468 nm
absorption maximum (in ClCCl): 459 nm
SMILES: CCN(CC)c1ccc2c(c1)oc(=O)c1c(=O)oc3cc(C#Cc4ccc(N(C)C)cc4)ccc3c12

SMILES: CC1=NN(c2ccccc2)C(=O)/C1=C\c1cn(-c2ccccc2)nc1-c1ccc([N+](=O)[O-])cc1
absorption maximum (in C1CCOC1): 343 nm
absorption maximum (in C1COCCO1): 361 nm
absorption maximum (in CCO): 362 nm
absorption maximum (in CCOC(C)=O): 359 nm
absorption maximum (in CN(C)C=O): 361 nm
absorption maximum (in CO): 360 nm
absorption maximum (in CS(C)=O): 364 nm
absorption maximum (in Cc1ccccc1): 364 nm
absorption maximum (in ClC(Cl)Cl): 363 nm

absorption maximum (in CC#N): 432 nm
absorption maximum (in O): 440 nm
SMILES: COc1ccc2c(c1)[n+]([O-])nc(N)[n+]2[O-]

absorption maximum (in CN(C)C=O): 661 nm
absorption maximum (in ClCCl): 426 nm
SMILES: C1=Cc2nc1c(-c1cccs1)c1ccc([nH]1)c(-c1cccs1)c1nc(c(-c3cccs3)c3ccc([nH]3)c2-c2cccs2)C=C1

absorption maximum (in CC#N): 382 nm
absorption maximum (in ClCCCl): 384 nm
SMILES: Cc1ccc2nc3[nH]c(=O)[nH]c(=O)c3nc2c1

SMILES: c1ccc(-c2nc(-c3ccc(-c4nc(-c5ccccc5)c(-c5ccccc5)[nH]4)s3)[nH]c2-c2ccccc2)cc1
absorption maximum (in C1CCOC1): 386 nm
absorption maximum (in CC#N): 385 nm
absorption maximum (in CC(=O)O): 392 nm
absorption maximum (in CC(C)=O): 384 nm and 385 nm
absorption maximum (in CCOC(C)=O): 385 nm
absorption maximum (in CCOCC): 384 nm
absorption maximum (in CO): 382 nm
absorption maximum (in ClC(Cl)Cl): 395 nm and 394.99 nm

absorption maximum (in ClCCl): 254 nm
SMILES: Cn1nc(-c2ccccc2)cc1-c1ccccc1

absorption maximum (in ClC(Cl)Cl): 386 nm
SMILES: Cc1cc(=O)oc2cc3c(cc12)c1c2ccccc2c2ccccc2c1c1c2ccccc2c2ccccc2c31

SMILES: c1ccc(-c2cc(-c3ccc4ccc5cccc6ccc3c4c56)ccn2)nc1
absorption maximum (in C1CCOC1): 344 nm
absorption maximum (in CC#N): 342.99 nm
absorption maximum (in CCC#N): 342.99 nm
absorption maximum (in CCCC#N): 344 nm
absorption maximum (in CCCCCC): 342 nm
absorption maximum (in CCCO): 342.99 nm
absorption maximum (in CCO): 342.99 nm
absorption maximum (in CO): 342.99 nm
absorption maximum (in Cc1ccccc1): 342.99 nm

SMILES: CCCCN1C(=O)C(=C/C=C/C=C2N(CCCC)c3ccccc3N2CCCC)C(=O)N(CCCC)C1=S
absorption maximum (in CCCCCC): 574 nm
absorption maximum (in CCO): 452 nm
absorption maximum (in CN(C)C=O): 497 nm
absorption maximum (in Cc1ccccc1): 575 nm
absorption maximum (in ClC(Cl)Cl): 559 nm
absorption maximum (in ClCCl): 550 nm

absorption maximum (in ClCCl): 322 nm
SMILES: CCOC(=O)c1c(-c2c(Cl)c3ccccc3oc2=O)nn(-c2ccccc2)c1C(=O)OCC

SMILES: Cc1cc(C)c(B(c2ccccc2N2c3ccccc3Oc3ccccc32)c2c(C)cc(C)cc2C)c(C)c1
absorption maximum (in Cc1ccccc1): 445 nm

absorption maximum (in C1CCCCC1): 291 nm
SMILES: COc1ccc(-c2ccc(-c3ccccc3)cc2)cc1

absorption maximum (in CCCCCC): 352 nm
absorption maximum (in CO): 351 nm
absorption maximum (in ClCCl): 354 nm
SMILES: CCCCc1ccc2ccc3c(CCCC)cc(CCCC)c4ccc1c2c34

absorption maximum (in CCCCCC): 609 nm
absorption maximum (in CCCCCCCCO): 613 nm
absorption maximum (in CCOC(C)=O): 607 nm
absorption maximum (in CN(C)C=O): 612 nm
SMILES: CC1=CC(C)=[N+]2C1=Cc1c3ccccc3c(C#Cc3ccc(F)cc3)n1[B-]2(F)F

absorption maximum (in ClCCl): 354 nm
SMILES: COc1ccc(C2=CC(c3ccccc3)=C(c3ccccc3)C2)c2ccccc12

SMILES: CN(C)c1ccc2cc(C3=[O+][B-](F)(F)OC(c4ccc(C#N)cc4)=C3)ccc2c1
absorption maximum (in C1CCOC1): 525 nm
absorption maximum (in CC#N): 539 nm
absorption maximum (in CC(C)=O): 533 nm
absorption maximum (in CS(C)=O): 559 nm
absorption maximum (in Cc1ccccc1): 519 nm
absorption maximum (in ClC(Cl)Cl): 532 nm
absorption maximum (in ClCCl): 539 nm

absorption maximum (in C1CCOC1): 386 nm
SMILES: COc1ccc(-c2cnc3nn4ccccc4c3c2)cc1

SMILES: S=P1(c2ccccc2)c2cccc3ccc4ccc1n4c23 (centres undefined)
absorption maximum (in ClCCl): 407 nm

absorption maximum (in ClCCl): 337 nm
SMILES: c1ccc(-c2cccc3ncc(-c4ccccc4)n23)cc1

SMILES: N#Cc1c(-c2ccccc2)cc(-c2ccccc2)[nH]c1=S
absorption maximum (in C1COCCO1): 446 nm
absorption maximum (in CC#N): 434 nm
absorption maximum (in CCCCO): 441 nm
absorption maximum (in CCCO): 431 nm
absorption maximum (in CCO): 407 nm
absorption maximum (in CCOC(C)=O): 430 nm
absorption maximum (in CCOCC): 451 nm
absorption maximum (in CN(C)C=O): 439 nm

SMILES: CCCC1=Cc2nc1ccc1[nH]c(cc1CCO)c1nc(ccc3[nH]c2cc3CCC)C(CCO)=C1
absorption maximum (in Cc1ccccc1): 638 nm

absorption maximum (in ClC(Cl)Cl): 330 nm
SMILES: CCCCn1c2ccccc2c2ccc3c4cc(-c5ccccc5)ccc4n(CCCC)c3c21

absorption maximum (in CCCCCC): 675 nm
absorption maximum (in ClCCl): 683 nm
SMILES: CC(C)[Si](C#Cc1c2cc3ccccc3cc2c(C#C[Si](C(C)C)(C(C)C)C(C)C)c2nc3cc4c(cc3nc12)C1c2ccccc2C4c2ccccc21)(C(C)C)C(C)C

absorption maximum (in ClCCl): 393 nm
SMILES: CN(C)c1ccc(/C=C/c2ccncn2)cc1

absorption maximum (in CC#N): 349 nm
SMILES: Cc1ccc(-c2ccc(/C=C/c3ccc([N+](=O)[O-])cc3)cn2)nc1

absorption maximum (in CO): 339 nm
SMILES: N#Cc1ccc(-c2nc(-c3ccccc3)c(-c3ccccc3)[nH]2)cc1

absorption maximum (in C1COCCO1): 434 nm
absorption maximum (in CC#N): 431 nm
absorption maximum (in ClCCl): 434 nm
SMILES: CCCn1c(=O)c(/C=C/c2nc3ccc(C)cc3n(CCC)c2=O)nc2ccc(C)cc21

absorption maximum (in C1CCCCC1): 400 nm
SMILES: CC(C)c1cc(C(C)C)c(B2c3cc(-n4c5ccccc5c5ccccc54)ccc3N(c3ccccc3)c3ccc(-n4c5ccccc5c5ccccc54)cc32)c(C(C)C)c1

absorption maximum (in CCO): 580 nm
absorption maximum (in O): 590 nm
SMILES: CC/[NH+]=c1\cc2oc3cc(NCCC(=O)NC(C(=O)OC)c4ccccc4)c4ccccc4c3nc-2cc1C (centres undefined)

SMILES: O=C1c2ccc(-c3ccc(N(c4ccccc4)c4ccccc4)cc3)cc2C(=O)c2ccc(-c3ccc(N(c4ccccc4)c4ccccc4)cc3)cc21
absorption maximum (in Cc1ccccc1): 454 nm

absorption maximum (in ClC(Cl)Cl): 434 nm
SMILES: CCN(CC)c1ccc2cc(-c3cn4cc(OC)ccc4n3)c(=O)oc2c1
